The source of these data is patent publication EP0583821A1, “Atriopeptins, guanylate cyclase activators, and phosphodiesterase inhibitors as treatment for glaucoma, hydrocephalus and cerebral edema (cranial fluid volume dysfunction)” (THE GENERAL HOSPITAL CORPORATION, priority 1987, dated 1988).

Where only a bound is given, the exact number is not on record here.

For one series, the system named is guanylate cyclase. The experiment in a line: Guanylate cyclase activation in crude broken-cell preparation of ciliary process. Particulars: low concentrations. In kind it is biochemical, rabbit. As to the method: Generally, the broken cell preparations are prepared according to the method described in a paper by Nathanson et al., (Molecular Pharmacology 20:68 (1981), which is herein incorporated by reference. Choroid epithelial cells are prepared as described in Example 1. To measure activity of atriopeptins, analogues, or agonists thereof, washed particulate cell preparations are prepared by using the pellet obtained following high speed centrifugation. To measure direct activators of guanylate cyclase, the crude broken-cell preparation without centrifugation is used. Guanylate cyclase activity is measured in appropriate buffer-containing GTP, cofactors, tissue fraction, and the compound to be tested. […] Cyclic GMP can be measured by any test which indicates the presence thereof, typically by the radioimmunoassay as described in Example 6. […] Ka^B, where B is the test compound, is compared with the constant (Ka^ANF) determined in an analogous way using rat atrial natriuretic factor (rANF) as a standard. […]
The effect of rANP on membrane-bound guanylate cyclase and adenylate cyclase activity in various brain-barrier tissues and tissue fractions from rabbit was compared with its activity in cerebrum and cerebellum. Guanylate cyclase was measured as the rate of cyclic GMP formation by modifications of the technique of Waldman et al., supra, incorporated herein by reference. […]

Series [1] relates to rabbits. The experiment in a line: Intraocular pressure and ocular observations after topical (eye drop) application. It counts as in vivo, rabbit. As for the experimental part:
The measurement of intraocular pressure (IOP), was performed using procedures similar to those described in Nathanson, Brit. J. Pharmacol., 73:97 (1981) and Nathanson, Current Eye Res., 4:191 (1985). Briefly, male (3-5 kg), New Zealand white rabbits were housed under standard conditions and exposed to a 12 hr light-dark cycle. IOP was measured with a Perkins applanation tonometer after topical anesthesia with 0.4% benoxinate (and 0.25% sodium fluorescein). The tonometer had been calibrated previously by connecting the anterior chamber of enucleated rabbit eyes to a manometer (and reservoir) and taking tonometer readings at different pressures. A number of preliminary IOP readings were made in order to accommodate the animals to the measurement procedure. Readings were then taken just prior to drug or vehicle injection and at 3, 9, 20, 27, 44, 51, 72, and 144 hours post-injection.
A potent PDE inhibitor of the arylxanthine class, 1,3-dibutylxanthine, was applied unilaterally and topically to rabbit eyes in a 0.5% solution. […] The IOP was decreased 4 mm (Hg) in the ipsilateral eye (Figure 8).
Again there was about a 4 mm (Hg) decrease in intraocular pressure. […] This xanthine inhibited the enzyme with an IC₅₀ (concentration necessary for 50% enzyme inhibition) of 25 uM.
(§1) The effect of nitroglycerine eye drops on rabbit intraocular pressure was also measured. The IOP of 8 conscious, male albino rabbits (3-4 kg) was measured by applanation pnumatonometry after topical anesthesia with 0.4% benoxinate. Nitroglycerine in phosphate buffered saline, pH 7.4, was given unilaterally, in two 25µl drops spaced five minutes apart. Blood pressure and pulse rate were measured by a photoelectric detector using an automated external tail cuff. […] By 24 hours, pressure had returned to normal.

Series [2] concerns rabbits. The experiment in a line: Systemic blood pressure and pulse rate (tail cuff) after eye drops. It counts as in vivo, rabbit. The note with it: 0.03% eye drops. As for the experimental part: as §1
The test system of another series is volunteer human. The series is described as follows: Eye drop in a volunteer human: IOP, blood pressure and pulse. The note with it: 50µl of 0.1% aqueous solution in one eye. It counts as in vivo. As for the experimental part:
The effect of administration of a nitroglycerine eye drop preparation (50µl of 0.1% aqueous solution in one eye) in a volunteer human is illustrated in Figure 14. IOP was measured by applanation pnumatonometry and blood pressure and pulse were measured by arm cuff.

Turning to `O=[N+]([O-])OCC(CO[N+](=O)[O-])O[N+](=O)[O-]` [nitroglycerine, 1,2,3-propanetriol trinitrate], in the series on guanylate cyclase, the “stimulation of basal guanylate cyclase activity” value is on record as “significant stimulation”. The “decrease in IOP at maximum” value in the series with rabbits [1] (0.03% (gm/100ml) solution, two 25µl drops, 8 rabbits) amounted to 5.2 mm Hg. In the series on rabbits [1] (0.03% solution), the “IOP at six hours” value is reported as “still significantly reduced”, the “time of greatest IOP decrease” value was “greatest at one hour” and the “time until pressure had returned to normal” value was at most 24 h. Moreover, the “effect of higher doses on IOP” value in the series with rabbits [1] (50µl eye drops, doses above 0.03%, Fig. 13) is recorded as “no additional decrease in IOP”. Moreover, the “effect of lower doses on IOP” value in the series with rabbits [1] (50µl eye drops, lower doses, Fig. 13) was “less effective”. Besides, the “conjunctival inflammation and pupillary diameter” value with rabbits [1] (all doses) is “At no dose did conjunctival inflammation nor any change in pupillary diameter occur”. For the same compound, in the series on rabbits [1] (higher doses), the “contralateral decrease in pressure relative to that seen ipsilaterally” value is 40-75%. In addition, in the series on rabbits [1] (higher doses (0.1%)), the “hyperemia of the conjunctival vessels” value is “slight, transient (five minutes) hyperemia”. For the same compound, in the series with rabbits [2], the “change in pulse rate or in systolic, diastolic or mean blood pressure” value is on record as “no significant change”. Besides, in the series with volunteer human, the “effect on IOP” value is “significantly decreased IOP” and the “systemic blood pressure or pulse” value is on record as “without change”.
